Source: patent publication US20220146526A1, “METHOD FOR EVALUATING SAMPLE, ANALYSIS METHOD, METHOD FOR DETECTING DEGRADED SAMPLE, MARKER FOR DETECTING DEGRADED BLOOD PLASMA SAMPLE, AND MARKER FOR DETECTING DEGRADED SERUM SAMPLE” (SHIMADZU CORPORATION, priority 2019, published 2022)

Columns and labels:
Format in all cases: physicochemical, human
[1] = LC/MS of blood plasma sample: time from blood collection to centrifugation (Table D); settings: for Rate of increase or decrease: detection intensity relative to 1 at 15 minutes; for Rate of increase or decrease / Increase or decrease: blood collection to centrifugation; for Increase or decrease: detection intensity; for Rate of increase or decrease (second value, decrease) / Rate of increase or decrease (first value, increase): different from individual to individual, relative to 1 at 15 minutes, collection to centrifugation; for Rate of increase or decrease (second value, decrease): individuals with decrease; for Rate of increase or decrease (first value, increase): individuals with increase
Procedure, shortened: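 Healthy-subject blood (5 mL, EDTA) cooled and held at 4 °C before centrifugation (4 °C, 3000 rpm, 15 min), with plasma then frozen. LC/MS on Discovery HS F5-3 column at 40 °C, 0.1% formic acid water/acetonitrile, 0.25 mL/min, electrospray, MRM; intensities relative to 15 min collection-to-centrifugation set as 1.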

[2] = LC/MS of blood plasma sample: time from blood collection to cooling of blood (Table E); parameters: key to Rate of increase or decrease / Rate of increase or decrease (first value, increase): detection intensity relative to ≤1 min to cooling = 1; settings: for Rate of increase or decrease: detection intensity relative to 1 at 1 minute or less, blood collection to cooling 5 minutes; for Increase or decrease: detection intensity, blood collection to cooling 5 minutes or more vs 1 minute or less
Protocol: At room temperature, 5 mL of blood from a healthy subject was taken into a blood-collecting vessel containing EDTA, and the blood-collecting vessel was inverted for mixing, then cooled, and allowed to stand at 4° C. Here, in order to investigate how the detection intensity of molecules contained in the sample was affected in a case where the time to cooling was set to 5 minutes or more as compared to that in a case where the time to cooling was set to 1 minute or less, preparations were performed under both the former condition and the latter condition. After standing, the blood sample was subjected to centrifugation under a condition of 4° C., 3000 rpm, and 15 minutes. […] After centrifugation, the blood-collecting vessel was left to stand at room temperature for 30 minutes, and the blood plasma was isolated during this 30 minutes. The obtained blood plasma sample was frozen and stored. Here, in order to investigate how the detection intensity of molecules contained in the sample was affected in cases where freezing and thawing was performed 4 times, 6 times, and 10 times after freezing as compared to that in a case where freezing and thawing was performed 2 times after freezing, freezing and thawing was performed under the respective conditions of 2, 4, 6, and 10 times.
(§1) Frozen blood plasma samples and serum samples were subjected to GC/MS or LC/MS. In GC/MS, the blood plasma samples and serum samples were subjected to methoxymation and trimethylsilylation and then introduced to GC-MS.
(§2) Analysis column: Discovery HS F5-3 (inner diameter of 2.1 mm, length of 150 mm, film thickness of 3 μm) (Sigma-Aldrich)
(§3) Column temperature: 40° C.
(§4) (A) 0.1% formic acid (dissolved in water)
(§5) (B) 0.1% formic acid (dissolved in acetonitrile)
(§6) Flow velocity: 0.25 mL/min
(§7) Ionization method: electrospray
(§8) Temperature: • Desolvation Line (DL) temperature: 250° C. • Heat block temperature: 400° C. • Interface temperature: 300° C.
(§9) Gas flow rate: • Nebulizer gas flow rate: 3.0 L/min • Drying gas flow rate: 10.0 L/min • Heating gas flow rate: 10.0 L/min
(§10) Mode: multiple reaction monitoring (MRM)
The rate of increase or decrease in Table E is the value of detection intensity relative to 1 that is the detection intensity in a case where the time from blood collection to cooling is set to 1 minute or less.

[3] = LC/MS of blood plasma sample: number of times of freezing and thawing (Table F); settings: for Rate of increase or decrease: detection intensity relative to 1 at 2 times, freezing and thawing 4 times; for Increase or decrease: detection intensity, freezing and thawing 4 times vs 2 times
Procedure, shortened: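 Human blood from a healthy subject drawn into EDTA tubes, cooled to 4° C within 1 min or after ≥5 min, centrifuged at 4° C, 3000 rpm, 15 min. Plasma frozen, then freeze-thawed 2, 4, 6 or 10 times and analysed by LC/MS (ESI, MRM). Intensities expressed relative to 2 freeze-thaw cycles set as 1.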

[4] = LC/MS of serum sample: number of times of freezing and thawing (Table M); parameters: key to Rate of increase or decrease: detection intensity relative to 1 at 2 freeze-thaw cycles; settings: for Number of times when compound is affected / Increase or decrease: serum sample, LC/MS; for Number of times when compound is affected: detection intensity changed by 30% or more vs 2 times of freezing and thawing; for Increase or decrease: detection intensity vs 2 times of freezing and thawing
Procedure, shortened: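 Serum was isolated at room temperature after centrifugation at room temperature, 3500 rpm, 5 minutes, then frozen and freeze-thawed 2, 4, 6 or 10 times. LC/MS used a Discovery HS F5-3 column at 40° C with formic acid water/acetonitrile, electrospray MRM. Intensity is relative to 2 freeze-thaw cycles.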

[5] = GC/MS of blood plasma sample: time from blood collection to centrifugation (Table A); settings: blood collection to centrifugation
Procedure, shortened: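 EDTA blood from a healthy subject was cooled at 4° C, centrifuged at 4° C, 3000 rpm, 15 minutes, and plasma was frozen. After methoxymation and trimethylsilylation, samples ran on GC/MS (BPX5 column, 60-330° C gradient, electron ionization, MRM). Intensity is relative to 15 minutes from collection to centrifugation.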

[6] = LC/MS of serum sample: time from blood collection to centrifugation (Table J); settings: for Rate of increase or decrease: detection intensity relative to 1 at 15 minutes; for Increase or decrease / Time when compound is affected: serum sample, LC/MS; for Increase or decrease: detection intensity vs 15 minutes from blood collection to centrifugation; for Time when compound is affected: time from blood collection to centrifugation, detection intensity changed by 30% or more vs 15 minutes
Procedure, shortened: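 Serum from blood centrifuged at room temperature, 3500 rpm, 5 min, then frozen; analysed by LC/MS on a Discovery HS F5-3 column at 40 °C. Mobile phase: 0.1% formic acid in water/acetonitrile, 0.25 mL/min, electrospray MRM. Values are intensity relative to a 15 min collection-to-centrifugation time.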

[7] = LC/MS of serum sample: time from centrifugation to isolation (Table K); parameters: key to Rate of increase or decrease: detection intensity relative to the 30-minute value set as 1; settings: for Increase or decrease / Time when compound is affected: serum sample, LC/MS; for Increase or decrease: detection intensity vs 30 minutes from centrifugation to isolation; for Time when compound is affected: time from centrifugation to isolation, detection intensity changed by 30% or more vs 30 minutes
Protocol: After standing, the blood sample was subjected to centrifugation under a condition of room temperature, 3500 rpm, and 5 minutes. […] After centrifugation, the blood-collecting vessel was left to stand at room temperature, and the serum was isolated during this time. Here, in order to investigate how the detection intensity of molecules contained in the sample was affected in cases where the time during which the blood-collecting vessel was left at room temperature was set to 1 hour and 6 hours as compared to that in a case where the time was set to 30 minutes, preparations were performed under the respective conditions of 30 minutes, 1 hour, and 6 hours. The obtained serum sample was frozen and stored. Here, in order to investigate how the detection intensity of molecules contained in the sample was affected in cases where freezing and thawing was performed 4 times, 6 times, and 10 times after freezing as compared to that in a case where freezing and thawing was performed 2 times after freezing, freezing and thawing was performed under the respective conditions of 2, 4, 6, and 10 times.
as §1, §2, §3, §4, §5, §6, §7, §8, §9, §10
The rate of increase or decrease in Table K is the value of detection intensity relative to 1 that is the detection intensity in a case where the time from centrifugation to isolation is set to 30 minutes.

[8] = GC/MS of serum sample: number of times of freezing and thawing (Table I); settings: serum, GC/MS
Procedure, shortened: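 Serum was isolated after centrifugation at room temperature (3500 rpm, 5 min), frozen, and put through 2, 4, 6 or 10 freeze–thaw cycles. Samples were methoxymated and trimethylsilylated, then run by electron-ionization GC/MS in MRM mode on a BPX5 column (60 to 330 °C). Detection intensity is given relative to the 2-cycle sample, set as 1.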

[9] = GC/MS of serum sample: time from centrifugation to isolation (Table H)
Procedure, shortened: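 Blood was centrifuged at room temperature, 3500 rpm, 5 min, and the vessel left at room temperature for 30 min, 1 h or 6 h before serum isolation. Serum was methoxymated, trimethylsilylated and analysed by GC/MS with electron ionization in MRM mode; intensities expressed relative to the 30-min condition (=1).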

[10] = GC/MS of serum sample: time from blood collection to centrifugation (Table G); settings: blood collection to centrifugation
Procedure, shortened: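 Blood was held for varying times before centrifugation (room temperature, 3500 rpm, 5 min); serum was frozen, then methoxymated and trimethylsilylated for GC/MS with electron ionization in MRM mode. Values are detection intensities relative to the 15-minute collection-to-centrifugation condition, set as 1.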

Structure (SMILES)	Rate of increase or decrease ([1]; after 6 hours)	Increase or decrease ([1]; after 6 hours vs 15 minutes)	Rate of increase or decrease [2]	Increase or decrease [2]	Rate of increase or decrease [3]	Increase or decrease [3]	Number of times when compound is affected [4] [times]	Increase or decrease [4]	Increase or decrease [6]	Time when compound is affected [6]	other results
C[S+](CC[C@H](N)C(=O)[O-])C[C@H]1O[C@@H](n2cnc3c(N)ncnc32)[C@H](O)[C@@H]1O (stereo partly shown) [S-adenosylmethionine]	0.62	Decrease	1.60	Increase	1.33	Increase	–	–	–	–	–
O=C(O)CC(O)C(=O)O (stereo not shown) [Malic acid]	0.58	Decrease	–	–	2.37	Increase	10	Decrease	Increase	After 4 hours	Rate of increase or decrease ([4]; 10 times of freezing and thawing, detection intensity relative to 1 at 2 times): 0.64; Rate of increase or decrease ([5]; detection intensity relative to 1 at 15 minutes, after 12 hours): 1.36; Increase or decrease ([5]; detection intensity, after 12 hours vs 15 minutes): Increase; Rate of increase or decrease ([6]; after 4 hours from blood collection to centrifugation): 1.33; Rate of increase or decrease ([7]; after 1 hour from centrifugation to isolation, detection intensity relative to 1 at 30 minutes): 1.38; Increase or decrease [7]: Increase; Time when compound is affected [7]: After 1 hour hours
N=C(N)NCCC[C@H](NC(CC(=O)O)C(=O)O)C(=O)O (stereo partly shown) [Argininosuccinic acid]	–	–	–	–	2.01	Increase	6	Different from individual	Decrease	After 6 hours	Rate of increase or decrease ([4]; 6 times of freezing and thawing, relative to 1 at 2 times, different from individual to individual, first value (increase)): 1.38; Rate of increase or decrease ([4]; 6 times of freezing and thawing, relative to 1 at 2 times, different from individual to individual, second value (decrease)): 0.49; Rate of increase or decrease ([6]; after 6 hours from blood collection to centrifugation): 0.65; Rate of increase or decrease ([1]; after 12 hours): 0.61; Increase or decrease ([1]; after 12 hours vs 15 minutes): Decrease; Increase or decrease [7]: Increase; Time when compound is affected [7]: After 1 hour hours
CN(C)C(N)=NCCC[C@H](N)C(=O)O [Asymmetric dimethylarginine]	–	–	1.31	Increase	–	–	6	Decrease	–	–	Rate of increase or decrease ([4]; 6 times of freezing and thawing, detection intensity relative to 1 at 2 times): 0.69; Increase or decrease ([1]; after 12 hours vs 15 minutes): Different from individual; Rate of increase or decrease (second value, decrease) ([1]; after 12 hours): 0.66; Rate of increase or decrease (first value, increase) ([1]; after 12 hours): 1.78
NCCCC(=O)O [4-Aminobutyric acid]	0.70	Decrease	1.50	Increase	1.76	Increase	–	–	–	–	–
N[C@@H](CCC(=O)N[C@@H](CS)C(=O)O)C(=O)O [5-Glutamylcysteine]	–	–	1.33	Increase	–	Increase	–	–	–	–	Increase or decrease ([1]; after 4 hours vs 15 minutes): Different from individual; Rate of increase or decrease (second value, decrease) ([1]; after 4 hours): 0.70; Rate of increase or decrease (first value, increase) ([1]; after 4 hours): 1.79
Nc1ccn([C@@H]2O[C@H](COP(=O)(O)O)[C@@H](O)[C@H]2O)c(=O)n1 [Cytidine monophosphate]	–	–	1.34	Increase	1.98	Increase	–	–	–	–	Rate of increase or decrease ([1]; after 4 hours): 1.75; Increase or decrease ([1]; after 4 hours vs 15 minutes): Increase
NCCc1ccc(O)c(O)c1 [Dopamine]	0.53	Decrease	1.43	Increase	–	–	–	–	Increase	After 12 hours	Rate of increase or decrease ([8]; detection intensity relative to 1 at 2 times, freezing and thawing 4 times): 0.53; Increase or decrease ([8]; detection intensity, freezing and thawing 4 times vs 2 times): Decrease; Rate of increase or decrease ([9]; detection intensity relative to 1 at 30 minutes, after 1 hour): 0.64; Increase or decrease ([9]; detection intensity, after 1 hour vs 30 minutes): Decrease; Rate of increase or decrease ([6]; after 12 hours from blood collection to centrifugation): 1.39; Rate of increase or decrease ([10]; detection intensity relative to 1 at 15 minutes, after 4 hours): 1.50; Increase or decrease ([10]; detection intensity, after 4 hours vs 15 minutes): Increase
